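Results reflect a 48-hour exposure of cells in 96-well plates to compound at five concentrations. Abbreviation: GI50, concentration required for 50% inhibition of growth. Definition used: TGI = concentration required for complete inhibition of growth.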
Assays:
Experiment in all cases: NCI anticancer screen, dose series, 48 h
[1] = tested on: OVCAR-8 ovarian
[2] = tested on: DU-145 prostate
[3] = tested on: SW-620 colon
[4] = tested on: OVCAR-4 ovarian
[5] = tested on: A549 NSCLC
[6] = tested on: SNB-75 CNS
[7] = tested on: RXF 393 renal
[8] = tested on: K-562 leukemia
[9] = tested on: MCF7 breast
[10] = tested on: HS 578T breast
[11] = tested on: SK-MEL-5 melanoma
[12] = tested on: SR leukemia
[13] = tested on: TK-10 renal
[14] = tested on: U251 CNS
[15] = tested on: CCRF-CEM leukemia
[16] = tested on: NCI-H460 lung
[17] = tested on: SK-MEL-2 melanoma
[18] = tested on: SK-MEL-28 melanoma
[19] = tested on: HT29 colon
[20] = tested on: A498 renal
[21] = tested on: COLO 205 colon
[22] = tested on: SF-268 CNS
[23] = tested on: HCC-2998 colon
[24] = tested on: T-47D breast
[25] = tested on: NCI-H226 lung
[26] = tested on: OVCAR-3 ovarian
[27] = tested on: SN12C renal
[28] = tested on: HOP-62 NSCLC
[29] = tested on: SK-OV-3 ovarian
[30] = tested on: PC-3 prostate
[31] = tested on: LOX IMVI melanoma
[32] = tested on: CAKI-1 renal
[33] = tested on: MOLT-4 leukemia
[34] = tested on: HCT-116 colon
[35] = tested on: IGROV1 ovarian
[36] = tested on: SF-295 CNS
[37] = tested on: HCT-15 colon
[38] = tested on: 786-0 renal
[39] = tested on: UACC-257 melanoma
[40] = tested on: SF-539 CNS
[41] = tested on: SNB-19 CNS
[42] = tested on: KM12 colon
[43] = tested on: NCI-H522 lung
[44] = tested on: UACC-62 melanoma
[45] = tested on: BT-549 breast
[46] = tested on: HOP-92 NSCLC
[47] = tested on: HL-60(TB) leukemia
[48] = tested on: UO-31 renal
[49] = tested on: NCI-H23 lung
[50] = tested on: ACHN renal
[51] = tested on: MALME-3M melanoma
[52] = tested on: MDA-MB-231 breast
[53] = tested on: M14 melanoma
[54] = tested on: NCI/ADR-RES ovarian
[55] = tested on: MDA-MB-435
[56] = tested on: RPMI-8226 leukemia
[57] = tested on: OVCAR-5 ovarian

Compound: COc1cc(OC)c(/C=C/c2cc[n+](C)c3ccccc23)c(OC)c1
- GI50 [1]: 1.62 µM
- TGI [1]: 10.2 µM
- GI50 [2]: 2.47 µM
- TGI [2]: 15.5 µM
- GI50 [3]: 2.56 µM
- TGI [3]: 16.9 µM
- GI50 [4]: 2.51 µM
- TGI [4]: 23 µM
- GI50 [5]: 1.8 µM
- TGI [5]: 54.6 µM
- GI50 [6]: 0.932 µM
- TGI [6]: 11.2 µM
- GI50 [7]: 2.66 µM
- TGI [7]: 19.2 µM
- GI50 [8]: 1 µM
- TGI [8]: > 100 µM
- GI50 [9]: 2.7 µM
- TGI [9]: > 100 µM
- GI50 [10]: 1.48 µM
- TGI [10]: 12.4 µM
- GI50 [11]: 0.928 µM
- TGI [11]: 2.39 µM
- GI50 [12]: 1.92 µM
- TGI [12]: > 100 µM
- GI50 [13]: 3.54 µM
- TGI [13]: 18.1 µM
- GI50 [14]: 0.536 µM
- TGI [14]: 11.7 µM
- GI50 [15]: 2.71 µM
- TGI [15]: > 100 µM
- GI50 [16]: 0.98 µM
- TGI [16]: 5.85 µM
- GI50 [17]: 2.66 µM
- TGI [17]: 6.32 µM
- GI50 [18]: 2.3 µM
- TGI [18]: 9.77 µM
- GI50 [19]: 1.94 µM
- TGI [19]: 7.28 µM
- GI50 [20]: 1.24 µM
- TGI [20]: 6.04 µM
- GI50 [21]: 1.23 µM
- TGI [21]: 2.9 µM
- GI50 [22]: 0.691 µM
- TGI [22]: 12.8 µM
- GI50 [23]: 2.46 µM
- TGI [23]: 13.9 µM
- GI50 [24]: 1.72 µM
- TGI [24]: 33.7 µM
- GI50 [25]: 1.99 µM
- TGI [25]: 17.3 µM
- GI50 [26]: 1.68 µM
- TGI [26]: 7.35 µM
- GI50 [27]: 1.05 µM
- TGI [27]: 13 µM
- GI50 [28]: 3.17 µM
- TGI [28]: 20.8 µM
- GI50 [29]: 3.32 µM
- TGI [29]: 17.5 µM
- GI50 [30]: 1.68 µM
- TGI [30]: 12.6 µM
- GI50 [31]: 1.29 µM
- TGI [31]: 3.15 µM
- GI50 [32]: 18.3 µM
- TGI [32]: > 100 µM
- GI50 [33]: 3.19 µM
- TGI [33]: 33.9 µM
- GI50 [34]: 1.27 µM
- TGI [34]: 33.7 µM
- GI50 [35]: 3.62 µM
- TGI [35]: 25.9 µM
- GI50 [36]: 0.702 µM
- TGI [36]: 6.48 µM
- GI50 [37]: 23.3 µM
- TGI [37]: > 100 µM
- GI50 [38]: 4.4 µM
- TGI [38]: 22.3 µM
- GI50 [39]: 1.86 µM
- TGI [39]: 5.98 µM
- GI50 [40]: 2.14 µM
- TGI [40]: 10.9 µM
- GI50 [41]: 0.795 µM
- TGI [41]: 15.4 µM
- GI50 [42]: 1.41 µM
- TGI [42]: 3.95 µM
- GI50 [43]: 1.61 µM
- TGI [43]: 6.34 µM
- GI50 [44]: 1.58 µM
- TGI [44]: 5.66 µM
- GI50 [45]: 1.79 µM
- TGI [45]: 13.6 µM
- GI50 [46]: 1.42 µM
- TGI [46]: 4.7 µM
- GI50 [47]: 1.33 µM
- TGI [47]: 8.58 µM
- GI50 [48]: 17.3 µM
- TGI [48]: > 100 µM
- GI50 [49]: 1.74 µM
- TGI [49]: 17.3 µM
- GI50 [50]: 13.5 µM
- TGI [50]: > 100 µM
- GI50 [51]: 1.87 µM
- TGI [51]: 8.04 µM
- GI50 [52]: 2.77 µM
- TGI [52]: 12.8 µM
- GI50 [53]: 2.88 µM
- TGI [53]: 15.8 µM
- GI50 [54]: > 100 µM
- TGI [54]: > 100 µM
- GI50 [55]: 1.83 µM
- TGI [55]: 7.37 µM
- GI50 [56]: 0.648 µM
- TGI [56]: 11.6 µM
- GI50 [57]: 3.66 µM
- TGI [57]: 38.7 µM

Reference: PubChem BioAssay (NCI)
